Assay results taken from patent US10670605B2, “Cysteine reactive probes and uses thereof” (The Scripps Research Institute, priority 2015, dated 2020).

Assays:
Experiment in all cases: Competitive isoTOP-ABPP in situ (fragment-treated cells)
Format in all cases: cell-based
Conditions in all cases: 200 μM, insitu, 231
[1] = target: T1, cysteines in MDA-MB-231 and Ramos cells (Homo sapiens, UniProt Q13155)
T1 sequence (Q13155 1-320): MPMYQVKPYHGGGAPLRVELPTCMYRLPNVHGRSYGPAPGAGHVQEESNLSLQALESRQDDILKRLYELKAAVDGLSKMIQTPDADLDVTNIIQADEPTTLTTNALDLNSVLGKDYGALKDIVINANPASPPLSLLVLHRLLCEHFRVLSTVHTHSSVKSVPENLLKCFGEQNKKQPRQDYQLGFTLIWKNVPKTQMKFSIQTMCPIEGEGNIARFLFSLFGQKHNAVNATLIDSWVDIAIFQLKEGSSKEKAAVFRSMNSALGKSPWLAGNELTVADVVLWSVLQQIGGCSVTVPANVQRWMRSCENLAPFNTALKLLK

[2] = target: T2, cysteines in MDA-MB-231 and Ramos cells (Homo sapiens, UniProt P51946)
T2 sequence (P51946 1-323): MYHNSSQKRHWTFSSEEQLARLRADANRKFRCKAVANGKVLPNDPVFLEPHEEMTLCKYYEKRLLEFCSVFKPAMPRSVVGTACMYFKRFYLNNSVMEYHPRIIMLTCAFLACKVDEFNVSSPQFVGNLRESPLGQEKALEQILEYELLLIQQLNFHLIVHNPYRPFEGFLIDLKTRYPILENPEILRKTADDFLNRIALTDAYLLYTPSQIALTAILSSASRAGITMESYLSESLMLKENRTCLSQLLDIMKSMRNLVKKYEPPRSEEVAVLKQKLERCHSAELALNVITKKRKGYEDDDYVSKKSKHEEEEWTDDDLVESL

[3] = target: T3, cysteines in MDA-MB-231 and Ramos cells (Homo sapiens, UniProt Q9UMS0)
T3 sequence (Q9UMS0 10-254): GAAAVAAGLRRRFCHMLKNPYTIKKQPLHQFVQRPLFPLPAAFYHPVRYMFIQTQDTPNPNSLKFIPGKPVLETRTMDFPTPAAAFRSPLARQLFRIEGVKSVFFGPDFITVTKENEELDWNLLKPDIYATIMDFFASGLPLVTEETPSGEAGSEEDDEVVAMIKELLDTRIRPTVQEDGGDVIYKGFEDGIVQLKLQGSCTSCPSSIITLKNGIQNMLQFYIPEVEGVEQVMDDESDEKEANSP

[4] = target: T4, cysteines in MDA-MB-231 and Ramos cells (Homo sapiens, UniProt P50570)
T4 sequence (P50570 1-870): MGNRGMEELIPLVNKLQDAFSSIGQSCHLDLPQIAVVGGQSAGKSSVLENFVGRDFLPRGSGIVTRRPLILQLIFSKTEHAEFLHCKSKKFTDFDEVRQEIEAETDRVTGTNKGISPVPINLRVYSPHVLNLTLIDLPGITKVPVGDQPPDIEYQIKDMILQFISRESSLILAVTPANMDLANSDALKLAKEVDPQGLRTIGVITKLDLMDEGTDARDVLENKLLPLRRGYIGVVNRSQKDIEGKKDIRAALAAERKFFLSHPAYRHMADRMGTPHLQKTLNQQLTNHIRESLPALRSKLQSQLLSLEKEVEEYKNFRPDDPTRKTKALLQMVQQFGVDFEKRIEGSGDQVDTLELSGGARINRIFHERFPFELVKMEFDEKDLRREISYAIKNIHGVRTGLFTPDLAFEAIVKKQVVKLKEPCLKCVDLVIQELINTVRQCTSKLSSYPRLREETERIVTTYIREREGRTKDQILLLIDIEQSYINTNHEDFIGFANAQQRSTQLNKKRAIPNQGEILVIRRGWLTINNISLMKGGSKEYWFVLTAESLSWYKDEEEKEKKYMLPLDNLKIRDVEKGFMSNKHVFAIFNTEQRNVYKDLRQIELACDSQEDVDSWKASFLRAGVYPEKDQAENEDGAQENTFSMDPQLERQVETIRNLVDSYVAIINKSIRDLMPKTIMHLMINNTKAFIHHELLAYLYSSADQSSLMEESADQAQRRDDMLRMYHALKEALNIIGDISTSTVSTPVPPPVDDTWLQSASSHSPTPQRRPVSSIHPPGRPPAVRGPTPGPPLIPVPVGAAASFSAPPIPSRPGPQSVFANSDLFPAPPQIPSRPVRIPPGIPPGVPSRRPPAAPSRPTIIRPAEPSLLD

[5] = target: T5, cysteines in MDA-MB-231 and Ramos cells (Homo sapiens, UniProt P04183)
T5 sequence (P04183 1-234): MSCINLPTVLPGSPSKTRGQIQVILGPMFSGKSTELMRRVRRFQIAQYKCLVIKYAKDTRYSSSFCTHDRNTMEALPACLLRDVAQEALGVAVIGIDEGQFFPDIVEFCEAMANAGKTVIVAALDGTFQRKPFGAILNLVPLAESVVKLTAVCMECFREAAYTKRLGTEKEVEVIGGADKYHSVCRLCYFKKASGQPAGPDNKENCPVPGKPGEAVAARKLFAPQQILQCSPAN

[6] = target: T6, cysteines in MDA-MB-231 and Ramos cells (Homo sapiens, UniProt P35611)
T6 sequence (P35611 1-737): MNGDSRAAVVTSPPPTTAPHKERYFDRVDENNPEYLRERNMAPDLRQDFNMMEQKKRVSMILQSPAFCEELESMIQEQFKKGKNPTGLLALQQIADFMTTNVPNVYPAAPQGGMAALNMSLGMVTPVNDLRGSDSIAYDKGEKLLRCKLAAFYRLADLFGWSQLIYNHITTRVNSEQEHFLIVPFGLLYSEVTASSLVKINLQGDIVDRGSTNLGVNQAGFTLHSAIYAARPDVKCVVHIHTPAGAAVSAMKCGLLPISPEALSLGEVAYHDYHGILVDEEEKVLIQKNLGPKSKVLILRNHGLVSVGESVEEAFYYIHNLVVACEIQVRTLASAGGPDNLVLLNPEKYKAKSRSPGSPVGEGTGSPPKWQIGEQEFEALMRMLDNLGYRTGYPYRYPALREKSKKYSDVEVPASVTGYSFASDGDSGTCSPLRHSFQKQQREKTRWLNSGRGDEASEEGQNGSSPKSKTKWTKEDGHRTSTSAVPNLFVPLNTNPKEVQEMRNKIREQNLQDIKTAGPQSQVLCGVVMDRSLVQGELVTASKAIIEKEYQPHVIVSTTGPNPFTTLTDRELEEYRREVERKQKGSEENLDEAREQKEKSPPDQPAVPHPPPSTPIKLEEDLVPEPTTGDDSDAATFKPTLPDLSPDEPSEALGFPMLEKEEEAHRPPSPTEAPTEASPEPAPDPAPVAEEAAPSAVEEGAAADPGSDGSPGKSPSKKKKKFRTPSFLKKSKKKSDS

SMILES	isoTOP-ABPP ratio Q13155_C291 [1]	isoTOP-ABPP ratio P51946_C244 [2]	isoTOP-ABPP ratio Q9UMS0_C213 [3]	isoTOP-ABPP ratio P50570_C27 [4]	isoTOP-ABPP ratio P04183_C66 [5]	isoTOP-ABPP ratio P04183_C230 [5]	isoTOP-ABPP ratio P35611_C68 [6]	isoTOP-ABPP ratio Q13155_C23 [1]
Cc1ccc(C=C(C#N)C(=O)NCCN2CCOCC2)cc1 [compound 41]	0.7	1.2	0.9	0.5	0.4	0.6	0.9	
C=CC(=O)Nc1cc(F)c(N2CCN(C(=O)OC(C)(C)C)CC2)c(F)c1 [compound 38]	1.7	1.0	3.5	0.9		2.8	1.4	1.4
